pIC50: −log10 of the molar value. Like-named read-outs stand apart in the source and are kept apart here.
How the values were obtained:
[1] = tested on: Chinese hamster ovary cells (CHO-WBL); test: In vitro micronucleus assay with Chinese hamster ovary cells
Description: In the major micronucleus assay, CHO-WBL cells were exposed to at least 3 concentrations of the test object, while vehicle control group and positive control group were set up, with 2 replicated wells for each dose group. In inactivated test system, the administration lasted for 3 and 24 hours, and in S9 activated test system, the exposure to the test object lasted for 3 hours.
When choosing the highest dose for micronucleus frequency assay, the cytotoxicity of dose group of the test object should not substantially exceed 50% of that of the corresponding vehicle control group.
On the premise that the test is valid, the test results are evaluated according to the following criteria:
If the test object simutaneously meets the following criteria, it can be considered as positive:
A significant increase in micronucleus frequency is observed in one or more concentration groups.
If none of the above three points is met, the test object can be considered as negative.

[2] = Rat pharmacokinetic study; assay type: in vivo, SD rat; settings: for F: PO 10 mg/kg vs IV 2 mg/kg; for AUC(0-inf) / AUC(0-t) / Cmax / half-life / Tmax: SD, plasma; for half-life: read-out: t½ (converted)
Description: SD rat pharmacokinetic study was performed on several compounds in Examples of the present disclosure through a single intravenous injection (IV, at a dose of 2 mg/kg) and a single oral administration (PO, at a dose of 10 mg/kg), and blood samples were taken before administration and 5 min, 15 min, 30 min, 1 h, 2 h, 4 h, 8 h, 12 h and 24 h after administration, respectively, to determine the plasma concentration of the compound for assay. The pharmacokinetic data of control compound and the compounds in Examples 17, 26, 28 and 29 of the present disclosure in rat plasma are shown in Tables 4-8.

ATX enzyme = ATX enzyme (Homo sapiens (Human), UniProt Q13822); test: ATX enzyme activity inhibition assay; assay type: biochemical; settings: 16:0-LPC substrate, Amplex UltraRed fluorescence
Description: The tested compounds were dissolved with dimethyl sulfoxide (DMSO) to prepare 20 mM of stock solutions, the stock solutions were subjected to 4-fold gradient dilutions with DMSO, with the initial concentration of 20 µM and a total of 8 concentration gradients. 20 nL of diluted compound was transferred to a 384-well plate using Echo 550 and 5 µL of ATX enzyme solution formulated with 4 × Tris-HCl reaction buffer to the well, then the 384-well plate was centrifuged at 1000 rpm for 1 min and […] pre-incubated at room temperature for 15 min. Subsequently, 5 µL of 16:0-LPC foumulated with the above 4 × reaction buffer and 10 µL of assay solution containng 2 × Amplex UltraRed reagent, choline oxidase and horseradish peroxidase (HRP) foumulated with the same reaction buffer were added to each well, then the 384-well plate was centrifugated at 1000 rpm for 1 min. The fluorescence signals were read at an excitation wavelength of 530 nm and an emission wavelength of 590 nm by Synergy 2 microplate reader. The inhibition rate of the compound against enzyme reaction was calculated according to the fluorescence intensity ratio, and IC50 of the compound was analysed and calculated by GraphPad Prism 5 software.

CYP3A4 = CYP3A4 (Homo sapiens (Human), UniProt P08684); test: 3A4 subtype of CYP450 enzyme time-dependent inhibition assay (IC50 shift); assay type: in vitro ADME; settings: probe testosterone, 50 µM; 30 min pre-incubation with vs without NADPH, testosterone substrate, human liver microsomes
Description: (§1) The probe substrate was testosterone at a concentration of 50 µM. The reaction was terminated after incubation for 10 min. The IC50 of the compound against enzyme was calculated by measuring the relative yield of metabolite, and the IC50 shift was calculated from the IC50 results of the groups pre-incubated with and without addition of NADPH.

hERG potassium channel = hERG potassium channel (Homo sapiens (Human), UniProt Q12809); test: hERG inhibition assay (manual whole-cell patch clamp); assay type: cell-based; settings: hERG tail current, stable transfected cell line
Description: Rapid activation of human delayed rectifier potassium current (IKr) is mainly mediated by hERG ion channel and participates in repolarization of human cardiomyocytes. Blocking this current with drugs will lead to QT interval prolongation syndrome in clinical practice, which will easily induce acute arrhythmia and even sudden death.
Experimental method: a whole-cell patch clamp technique was used to record hERG current. The cell suspension was added to a small petri dish and placed on an inverted microscope stage. After adherence, the cells were perfused with extracellular fluid at a recommended flow rate of 1-2 mL/min. The glass microelectrode was drawn by a microelectrode drawing instrument in two steps, and the resistance thereof after filling the electrode interior liquid was 2-5 MΩ. After the whole-cell recording mode was set up, the clamping potential was maintained at -80 mV. The depolarization voltage was applied to +60 mV for 850 ms, and then repolarized to -50 mV for 1275 ms to induce hERG tail current. Such a set of pulse programming was repeated every 15 seconds throughout the experiment. After the current was stable, the drug was administered by extracellular continuous perfusion from low concentration to high concentration. Starting from low concentration, perfusion continued until the drug effect was stable, then perfusion at the next concentration was performed. In this experiment, the blocking effect on hERG tail current was tested for the test objects at different concentrations and the positive control (N ≥ 2). Then, stimulus generation and signal acquisition were carried out by PatchMaster software; and a signal was amplified with a patch clamp amplifier. FitMaster, EXCEL, Graphpad Prism, SPSS 21.0, etc. were used for further data analysis and curve fitting. In data processing, when determining the blocking effect on hERG, the peak and baseline of tail current were calibrated. The inhibition rate (IR) of tail current was used to express the effect of the compounds at different concentrations.
IR = 100% × (peak of tail current before administration - peak of tail current after administration)/peak of tail current before administration.
IC50 was obtained by fitting the Hill equation (if applicable), if the maximum inhibition rate of the test object at all concentrations was less than 50%, then IC50 was not calculated. [00500]

[3] = molecular target: 3A4 subtype of CYP450 enzyme (Homo sapiens (Human), UniProt P08684); test: 3A4 subtype of CYP450 enzyme time-dependent inhibition assay (IC50 shift); assay type: in vitro ADME; settings: both IC50 values above top concentration; testosterone substrate; read-out: IC50 against 3A4 subtype (both groups, pre-incubated with and without NADPH)
Description: as §1

Chain of 3A4 subtype of CYP450 enzyme (P08684 whole entry): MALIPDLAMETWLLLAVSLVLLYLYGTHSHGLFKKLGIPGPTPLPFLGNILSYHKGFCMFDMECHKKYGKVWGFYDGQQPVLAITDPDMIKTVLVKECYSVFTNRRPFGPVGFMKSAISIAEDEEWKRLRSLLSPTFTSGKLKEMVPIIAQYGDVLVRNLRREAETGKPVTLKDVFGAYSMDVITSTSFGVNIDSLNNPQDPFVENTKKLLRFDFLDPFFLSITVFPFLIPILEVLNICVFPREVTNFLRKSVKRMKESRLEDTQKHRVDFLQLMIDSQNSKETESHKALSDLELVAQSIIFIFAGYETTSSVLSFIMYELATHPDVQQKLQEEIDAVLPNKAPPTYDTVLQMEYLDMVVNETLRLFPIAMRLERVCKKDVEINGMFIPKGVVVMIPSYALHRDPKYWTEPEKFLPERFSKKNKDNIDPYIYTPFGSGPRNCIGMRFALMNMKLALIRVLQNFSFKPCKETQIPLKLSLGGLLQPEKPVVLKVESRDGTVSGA
Chain of hERG potassium channel (Q12809 whole entry): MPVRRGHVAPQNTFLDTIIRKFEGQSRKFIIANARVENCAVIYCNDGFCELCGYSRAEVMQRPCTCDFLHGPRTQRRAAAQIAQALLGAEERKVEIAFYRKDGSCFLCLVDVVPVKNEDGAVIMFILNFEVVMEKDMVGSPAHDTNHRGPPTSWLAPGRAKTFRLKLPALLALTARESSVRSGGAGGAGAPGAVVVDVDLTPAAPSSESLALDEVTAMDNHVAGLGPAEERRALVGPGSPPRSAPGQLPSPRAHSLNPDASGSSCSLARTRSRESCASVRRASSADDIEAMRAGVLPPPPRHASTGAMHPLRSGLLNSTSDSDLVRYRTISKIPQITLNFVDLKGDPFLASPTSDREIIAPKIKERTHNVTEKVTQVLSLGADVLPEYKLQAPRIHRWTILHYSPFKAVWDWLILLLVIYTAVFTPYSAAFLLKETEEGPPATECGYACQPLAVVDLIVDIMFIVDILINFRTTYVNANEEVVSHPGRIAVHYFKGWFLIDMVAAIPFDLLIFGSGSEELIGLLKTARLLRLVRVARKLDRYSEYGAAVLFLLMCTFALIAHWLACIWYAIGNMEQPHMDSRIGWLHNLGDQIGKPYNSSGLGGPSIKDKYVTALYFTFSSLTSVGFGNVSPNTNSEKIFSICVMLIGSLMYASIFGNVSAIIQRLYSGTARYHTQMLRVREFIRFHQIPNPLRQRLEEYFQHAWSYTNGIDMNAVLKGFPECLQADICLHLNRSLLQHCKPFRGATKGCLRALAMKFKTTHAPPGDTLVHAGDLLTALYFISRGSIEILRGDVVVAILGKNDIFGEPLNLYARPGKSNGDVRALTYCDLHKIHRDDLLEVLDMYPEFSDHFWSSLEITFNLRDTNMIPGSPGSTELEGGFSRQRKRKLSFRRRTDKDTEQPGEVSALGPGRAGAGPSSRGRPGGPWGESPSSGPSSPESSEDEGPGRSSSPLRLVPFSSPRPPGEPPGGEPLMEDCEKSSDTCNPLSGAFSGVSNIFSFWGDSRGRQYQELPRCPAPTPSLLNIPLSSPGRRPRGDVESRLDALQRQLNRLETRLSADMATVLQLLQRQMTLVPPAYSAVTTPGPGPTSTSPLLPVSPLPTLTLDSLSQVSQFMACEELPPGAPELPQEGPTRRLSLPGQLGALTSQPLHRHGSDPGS
Chain of CYP3A4 (P08684 whole entry): as the sequence (P08684 whole entry) above

SMILES | Cl_F_pred ([2]; IV 2 mg/kg) [mL/min/kg] | Cl_F_pred ([2]; PO 10 mg/kg) [mL/min/kg] | F [2] [%] | AUC(0-inf) ([2]; IV 2 mg/kg) [ng·h/mL] | AUC(0-t) ([2]; IV 2 mg/kg) [ng·h/mL] | Cmax ([2]; IV 2 mg/kg) [ng/mL] | half-life ([2]; IV 2 mg/kg) [h] | AUC(0-inf) ([2]; PO 10 mg/kg) [ng·h/mL] | AUC(0-t) ([2]; PO 10 mg/kg) [ng·h/mL] | Cmax ([2]; PO 10 mg/kg) [ng/mL] | Tmax ([2]; PO 10 mg/kg) [h] | half-life ([2]; PO 10 mg/kg) [h] | pIC50 (ATX enzyme) | IC50 shift at 10 min (CYP3A4) | pIC50 (hERG potassium channel) | pIC50 [3] | further results
CCN(c1nc(-c2ccc(F)cc2)c(C#N)s1)c1c2nc(-c3cnc(N4CCC(O)CC4)nc3)ccc2nn1CC [Example 26, 2-(ethyl(2-ethyl-5-(2-(4-hydroxypiperidin-1-yl)pyrimidin-5-yl)-2H-pyrazolo[4,3-b]pyridin-3-yl)amino)-4-(4-fluorophenyl)thiazole-5-carbonitrile] | 4.17 | 25 | 16.6 | 8170 | 7500 | 3070 | 9.3 | 6720 | 6230 | 663 | 4 | 5.8 | 8.26 | 1.09 | < 4.52 |  | % binuclear cells containing micronucleus ([1]; 3-hour administration with metabolic activation, 3 µg/ml): 1.65%; % binuclear cells containing micronucleus ([1]; 3-hour administration with metabolic activation, 6 µg/ml): 1.65%; % binuclear cells containing micronucleus ([1]; 3-hour administration with metabolic activation, 12 µg/ml): 1.75%; % binuclear cells containing micronucleus ([1]; 3-hour administration with metabolic activation, 20 µg/ml): 1.60%; % binuclear cells containing micronucleus ([1]; 3-hour administration without metabolic activation, 3 µg/ml): 1.85%; % binuclear cells containing micronucleus ([1]; 3-hour administration without metabolic activation, 6 µg/ml): 1.80%; % binuclear cells containing micronucleus ([1]; 3-hour administration without metabolic activation, 12 µg/ml): 1.70%; % binuclear cells containing micronucleus ([1]; 3-hour administration without metabolic activation, 25 µg/ml): 1.50%; % binuclear cells containing micronucleus ([1]; 24-hour administration without metabolic activation, 1 µg/ml): 1.90%; % binuclear cells containing micronucleus ([1]; 24-hour administration without metabolic activation, 3 µg/ml): 1.65%; % binuclear cells containing micronucleus ([1]; 24-hour administration without metabolic activation, 6 µg/ml): 1.85%; % binuclear cells containing micronucleus ([1]; 24-hour administration without metabolic activation, 9 µg/ml): 1.80%; potential to induce micronucleus formation in CHO-WBL cells ([1]; overall verdict over all administration series): negative
CCN(c1nc(-c2ccc(F)cc2)c(C#N)s1)c1c2nc(-c3cnc(N4CC(O)C4)nc3)ccc2nn1CC [Example 23, 2-(ethyl(2-ethyl-5-(2-(3-hydroxyazetidin-1-yl)pyrimidin-5-yl)-2H-pyrazolo[4,3-b]pyridin-3-yl)amino)-4-(4-fluorophenyl)thiazole-5-carbonitrile] |  |  |  |  |  |  |  |  |  |  |  |  | 7.96 |  |  | < 4.00 | 
CCN(c1nc(-c2ccc(F)cc2)c(C#N)s1)c1c2nc(-c3cnc(N4CCOCC4)nc3)ccc2nn1CC [Example 29, 2-(ethyl(2-ethyl-5-(2-morpholinopyrimidin-5-yl)-2H-pyrazolo[4,3-b]pyridin-3-yl)amino)-4-(4-fluorophenyl)thiazole-5-carbonitrile] | 4.83 | 18.3 | 11.2 | 7220 | 6840 | 3480 | 8.2 | 9150 | 7780 | 847 | 3.3 | 9.2 | 7.64 |  | < 4.52 | < 4.00 | 
CCN(c1nc(-c2ccc(F)cc2)c(C#N)s1)c1c2nc(-c3cnc(N4CCCS4(=O)=O)nc3)ccc2nn1CC [Example 17, 2-((5-(2-(1,1-dioxidoisothiazolidin-2-yl)pyrimidin-5-yl)-2-ethyl-2H-pyrazolo[4,3-b]pyridin-3-yl)(ethyl)amino)-4-(4-fluorophenyl)thiazole-5-carbonitrile] | 7.17 | 18.2 | 38.5 | 4720 | 4680 | 2540 | 4 | 9180 | 9030 | 1030 | 4 | 3.7 | 8.13 |  | < 4.52 | < 4.00 | 
CCN(c1nc(-c2ccc(F)cc2)c(C#N)s1)c1c2nc(-c3cnc(N4CC[C@H](O)C4)nc3)ccc2nn1CC [Example 27, (S)-2-(ethyl(2-ethyl-5-(2-(3-hydroxypyrrolidin-1-yl)pyrimidin-5-yl)-2H-pyrazolo[4,3-b]pyridin-3-yl)amino)-4-(4-fluorophenyl)thiazole-5-carbonitrile] |  |  |  |  |  |  |  |  |  |  |  |  | 8.34 | 0.63 | < 4.52 |  | 

Source: patent US20230295159A1, “ATX INHIBITOR, AND PREPARATION METHOD THEREFOR AND USE THEREOF” (SUZHOU ARK BIOPHARMACEUTICAL CO., LTD., priority 2020, published 2023)
